One experiment concerns the target T1, Neutrophil elastase (Homo sapiens, UniProt P08246).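 Note: inhibition of neutrophil elastase enzyme activity, measured with a p-nitroanilide-linked peptide substrate; in other assays of this panel Not Active means under 50% inhibition at 10 µM.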
T1 sequence (P08246 whole entry): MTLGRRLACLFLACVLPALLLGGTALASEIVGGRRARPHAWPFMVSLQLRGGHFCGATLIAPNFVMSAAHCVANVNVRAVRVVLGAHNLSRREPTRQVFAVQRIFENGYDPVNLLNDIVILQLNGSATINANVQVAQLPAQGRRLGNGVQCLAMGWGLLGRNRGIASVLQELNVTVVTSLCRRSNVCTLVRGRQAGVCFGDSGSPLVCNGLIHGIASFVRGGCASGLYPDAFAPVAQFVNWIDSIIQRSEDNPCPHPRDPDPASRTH
The experiment is classed as tissue-based.

For experiment [1], the target named is T2, Receptor-type tyrosine-protein phosphatase C (Homo sapiens, UniProt P08575).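 Note: inhibition of CD45 enzyme activity measured using DiFMUP as substrate; in other assays of this panel Not Active means under 50% inhibition at 10 µM.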
T2 sequence (P08575 whole entry): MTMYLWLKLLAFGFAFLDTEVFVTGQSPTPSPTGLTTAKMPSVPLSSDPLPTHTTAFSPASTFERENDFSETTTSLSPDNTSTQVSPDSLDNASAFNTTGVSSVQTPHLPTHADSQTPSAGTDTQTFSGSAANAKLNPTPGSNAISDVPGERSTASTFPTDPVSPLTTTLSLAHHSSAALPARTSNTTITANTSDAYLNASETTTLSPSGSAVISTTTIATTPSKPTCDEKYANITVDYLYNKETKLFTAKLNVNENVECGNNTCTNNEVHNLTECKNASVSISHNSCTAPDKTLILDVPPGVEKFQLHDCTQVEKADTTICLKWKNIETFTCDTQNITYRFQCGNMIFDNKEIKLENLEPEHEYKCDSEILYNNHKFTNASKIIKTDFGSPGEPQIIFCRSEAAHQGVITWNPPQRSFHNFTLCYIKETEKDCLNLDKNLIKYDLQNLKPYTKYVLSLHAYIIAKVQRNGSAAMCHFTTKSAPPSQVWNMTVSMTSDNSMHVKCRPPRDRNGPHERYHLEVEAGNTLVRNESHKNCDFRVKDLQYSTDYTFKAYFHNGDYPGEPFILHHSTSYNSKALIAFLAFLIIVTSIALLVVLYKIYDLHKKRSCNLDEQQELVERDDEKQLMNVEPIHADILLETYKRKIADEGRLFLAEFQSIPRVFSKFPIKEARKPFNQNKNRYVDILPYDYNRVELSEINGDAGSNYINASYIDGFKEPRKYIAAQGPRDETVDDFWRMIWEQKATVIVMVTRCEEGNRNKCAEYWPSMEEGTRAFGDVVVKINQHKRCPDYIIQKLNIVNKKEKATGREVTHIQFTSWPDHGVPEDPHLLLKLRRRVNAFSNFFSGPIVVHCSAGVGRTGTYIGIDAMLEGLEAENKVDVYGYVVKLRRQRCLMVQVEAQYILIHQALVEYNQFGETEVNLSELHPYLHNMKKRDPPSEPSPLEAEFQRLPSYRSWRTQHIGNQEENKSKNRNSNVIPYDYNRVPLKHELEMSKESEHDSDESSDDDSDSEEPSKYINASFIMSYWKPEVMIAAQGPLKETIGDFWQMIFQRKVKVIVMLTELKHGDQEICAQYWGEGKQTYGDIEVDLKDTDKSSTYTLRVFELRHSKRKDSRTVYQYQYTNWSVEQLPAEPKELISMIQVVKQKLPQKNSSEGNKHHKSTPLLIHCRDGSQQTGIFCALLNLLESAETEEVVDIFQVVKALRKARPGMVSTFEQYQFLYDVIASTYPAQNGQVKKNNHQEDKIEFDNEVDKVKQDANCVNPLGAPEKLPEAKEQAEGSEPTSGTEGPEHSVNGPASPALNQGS
Also on record: species or system Escherichia coli.

Experiment [2] addresses T3, Type-2 angiotensin II receptor (Homo sapiens, UniProt P50052).
T3 sequence (P50052 whole entry): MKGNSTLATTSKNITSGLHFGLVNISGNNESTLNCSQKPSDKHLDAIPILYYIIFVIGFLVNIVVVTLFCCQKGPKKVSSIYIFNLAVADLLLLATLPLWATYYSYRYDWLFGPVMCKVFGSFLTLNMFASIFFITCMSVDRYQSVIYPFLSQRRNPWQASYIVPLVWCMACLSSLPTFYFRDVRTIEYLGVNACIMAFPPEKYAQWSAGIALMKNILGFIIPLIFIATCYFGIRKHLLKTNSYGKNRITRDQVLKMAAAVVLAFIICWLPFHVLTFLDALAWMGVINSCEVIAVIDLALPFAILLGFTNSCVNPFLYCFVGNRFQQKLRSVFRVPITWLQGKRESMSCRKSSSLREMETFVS
The experiment is classed as cell-based. Conditions: cho-k1.

Experiment [3] is described as follows: DRUGMATRIX: Sodium/nucleoside co-transporter radioligand binding (ligand: nitrobenzylthioinosine). It counts as cell membranes, Cavia porcellus, Dunkin-Hartley, Cerebral cortex, Membrane. Conditions: Not Active = under 50% inhibition at 10 µM.
For experiment [4], the target named is Sodium-dependent noradrenaline transporter (Homo sapiens, UniProt P23975). Nature of the experiment: DRUGMATRIX: Norepinephrine Transporter radioligand binding (ligand: [125I] RTI-55). The experiment is classed as cell membranes, MDCK, Membrane. Conditions: Not Active = under 50% inhibition at 10 µM; for Ki: read-out: Ki.
Sodium-dependent noradrenaline transporter, sequence (P23975 whole entry): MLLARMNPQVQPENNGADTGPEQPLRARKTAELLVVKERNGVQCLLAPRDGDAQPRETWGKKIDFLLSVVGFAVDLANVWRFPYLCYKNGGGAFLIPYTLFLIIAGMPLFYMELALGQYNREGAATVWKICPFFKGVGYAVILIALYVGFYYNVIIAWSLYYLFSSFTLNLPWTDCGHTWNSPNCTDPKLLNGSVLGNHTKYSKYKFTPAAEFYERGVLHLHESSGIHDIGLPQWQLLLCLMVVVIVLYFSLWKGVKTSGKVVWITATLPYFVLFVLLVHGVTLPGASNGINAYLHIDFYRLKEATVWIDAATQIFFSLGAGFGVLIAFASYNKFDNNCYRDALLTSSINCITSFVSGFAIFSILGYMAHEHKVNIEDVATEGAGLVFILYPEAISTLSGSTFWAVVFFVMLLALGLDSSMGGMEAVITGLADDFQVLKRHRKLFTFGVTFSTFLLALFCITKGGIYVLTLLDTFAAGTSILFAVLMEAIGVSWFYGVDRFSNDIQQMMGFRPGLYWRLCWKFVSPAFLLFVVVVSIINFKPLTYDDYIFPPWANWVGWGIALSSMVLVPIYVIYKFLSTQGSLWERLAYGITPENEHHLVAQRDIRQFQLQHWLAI
Experiment [5] concerns the target Protein phosphatase 3 catalytic subunit alpha (Homo sapiens, UniProt Q08209). The arrangement: species or system Escherichia coli.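 Note: inhibition of calcineurin (PP2B) enzyme activity, measured with DiFMUP as the substrate; in other assays of this panel Not Active means under 50% inhibition at 10 µM.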
Experiment [6] deals with T4, 5-hydroxytryptamine receptor 1A (Rattus norvegicus, UniProt P19327).
T4 sequence (P19327 whole entry): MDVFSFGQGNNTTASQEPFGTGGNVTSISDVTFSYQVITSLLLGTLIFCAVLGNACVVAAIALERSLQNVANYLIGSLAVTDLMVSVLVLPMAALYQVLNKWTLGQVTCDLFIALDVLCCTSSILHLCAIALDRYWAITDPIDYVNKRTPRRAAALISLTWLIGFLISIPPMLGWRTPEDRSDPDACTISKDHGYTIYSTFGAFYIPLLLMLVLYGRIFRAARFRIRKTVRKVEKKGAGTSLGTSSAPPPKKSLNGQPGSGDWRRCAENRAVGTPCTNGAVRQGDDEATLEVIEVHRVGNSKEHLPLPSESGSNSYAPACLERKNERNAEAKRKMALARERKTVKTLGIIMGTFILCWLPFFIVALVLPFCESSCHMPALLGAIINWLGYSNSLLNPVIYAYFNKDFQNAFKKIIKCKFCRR
The experiment is classed as cell membranes, Membrane. Conditions: cho-k1.

Experiment [7] concerns the target 5-hydroxytryptamine receptor 2B (Homo sapiens, UniProt P41595). The experiment is classed as cell membranes, CHO-K1, Membrane. Conditions: cho-k1. Note: in other assays of this panel Not Active means under 50% inhibition at 10 µM.

What is called IC50 is the concentration that inhibits the measured activity by half. The term Ki denotes a dissociation constant, usually derived from enzyme kinetics or from competition with a known ligand.

5-hydroxytryptamine receptor 2B, sequence (P41595 whole entry): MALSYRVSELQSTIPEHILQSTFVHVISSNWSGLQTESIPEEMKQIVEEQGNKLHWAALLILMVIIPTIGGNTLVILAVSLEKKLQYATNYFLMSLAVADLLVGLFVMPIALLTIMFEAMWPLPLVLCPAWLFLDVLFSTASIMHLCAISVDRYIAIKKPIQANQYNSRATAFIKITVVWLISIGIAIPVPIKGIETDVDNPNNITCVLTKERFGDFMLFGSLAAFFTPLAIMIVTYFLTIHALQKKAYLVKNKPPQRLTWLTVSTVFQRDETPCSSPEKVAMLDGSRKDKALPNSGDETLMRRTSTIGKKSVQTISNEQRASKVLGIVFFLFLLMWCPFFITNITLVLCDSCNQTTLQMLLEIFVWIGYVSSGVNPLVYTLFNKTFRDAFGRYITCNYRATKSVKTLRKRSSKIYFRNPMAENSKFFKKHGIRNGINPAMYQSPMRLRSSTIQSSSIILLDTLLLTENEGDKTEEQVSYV

`CN(C)c1ccc(C(=C2C=CC(=[N+](C)C)C=C2)c2ccc(N(C)C)cc2)cc1.[Cl-]` [GENTIAN VIOLET]: the IC50 entry (against Neutrophil elastase; in experiment [1]; in experiment [2]; in experiment [3]; in experiment [4] (mdck); in experiment [5]) was “Not Active” each time. In addition, the IC50 entry in experiment [6] and in experiment [7] was “Not Active” throughout. Besides, in experiment [3], the Ki result is “Not Active”.

`Cc1ccc(S(=O)(=O)NC(=O)NN2CC3CCCC3C2)cc1` (stereo not drawn) [GLICLAZIDE]: the IC50 result (at Neutrophil elastase; in experiment [1]; in experiment [2]; in experiment [3]; in experiment [4] (mdck); in experiment [5]) was “Not Active” in each case. Moreover, the IC50 result in experiment [6] and in experiment [7] was “Not Active” throughout. Moreover, the Ki entry in experiment [3] is listed as “Not Active”.

`NC(=O)NO` [HYDROXYUREA]: the IC50 entry (against Neutrophil elastase; in experiment [1]; in experiment [2]; in experiment [3]; in experiment [4] (mdck); in experiment [5]) was “Not Active” each time. Moreover, the IC50 entry in experiment [6] and in experiment [7] was “Not Active” throughout. Further, the Ki entry in experiment [3] is recorded as “Not Active”.

Consider `CC(C)Cc1ccc(C(C)C(=O)O)cc1` (stereo not drawn) [IBUPROFEN], for which the IC50 entry (at Neutrophil elastase; in experiment [1]; in experiment [2]; in experiment [3]; in experiment [4] (mdck); in experiment [5]) was “Not Active” each time. The IC50 entry in experiment [6] and in experiment [7] was “Not Active” throughout. In addition, the Ki result in experiment [3] is given as “Not Active”.

On to `COc1ccc2c(c1)c(CC(=O)O)c(C)n2C(=O)c1ccc(Cl)cc1` [INDOMETHACIN], for which the IC50 result (at Neutrophil elastase; in experiment [1]; in experiment [2]; in experiment [3]; in experiment [4] (mdck); in experiment [5]) was “Not Active” in each case. In addition, the IC50 entry in experiment [6] and in experiment [7] was “Not Active” in each case. The Ki entry in experiment [3] is listed as “Not Active”.

As for `CCc1c2c(nc3ccc(OC(=O)N4CCC(N5CCCCC5)CC4)cc13)-c1cc3c(c(=O)n1C2)COC(=O)[C@]3(O)CC` [IRINOTECAN], the IC50 entry (against Neutrophil elastase; in experiment [1]; in experiment [2]; in experiment [3]; in experiment [4] (mdck); in experiment [5]) was “Not Active” throughout. Moreover, the IC50 result in experiment [6] and in experiment [7] was “Not Active” throughout. Also, in experiment [3], the inhibition constant Ki result is given as “Not Active”.

On to `CC(C(=O)O)c1cccc(C(=O)c2ccccc2)c1` (stereo not drawn) [KETOPROFEN], for which the concentration for half-maximal inhibition (IC50) entry (on Neutrophil elastase; in experiment [1]; in experiment [2]; in experiment [3]; in experiment [4] (mdck); in experiment [5]) was “Not Active” in each case. In addition, the IC50 entry in experiment [6] and in experiment [7] was “Not Active” each time. Further, the Ki result in experiment [3] is recorded as “Not Active”.

Consider `Nc1ccn([C@@H]2CS[C@H](CO)O2)c(=O)n1` [LAMIVUDINE], for which the IC50 entry (against Neutrophil elastase; in experiment [1]; in experiment [2]; in experiment [3]; in experiment [4] (mdck); in experiment [5]) was “Not Active” in each case. For the same compound, the IC50 entry in experiment [6] and in experiment [7] was “Not Active” throughout. Further, in experiment [3], the Ki entry is “Not Active”.

For the compound `O=S(=O)([O-])CCS.[Na+]` [MESNA], the IC50 entry (at Neutrophil elastase; in experiment [1]; in experiment [2]; in experiment [3]; in experiment [4] (mdck); in experiment [5]) was “Not Active” throughout. For the same compound, the IC50 result in experiment [6] and in experiment [7] was “Not Active” each time. The Ki result in experiment [3] is recorded as “Not Active”.

Consider `C#C[C@]1(O)CC[C@H]2[C@@H]3CCc4cc(OC)ccc4[C@H]3CC[C@@]21C` [MESTRANOL], for which the IC50 entry against Neutrophil elastase was “Not Active”; in experiment [1], “Not Active”; in experiment [2], “Not Active”; in experiment [3] it was “Not Active”; in experiment [4] (read-out: IC50) it was 1380 nM; in experiment [5], “Not Active”. The half-inhibitory concentration (IC50) entry in experiment [6] and in experiment [7] was “Not Active” throughout. Further, the figures for the Ki result in experiment [3] and in experiment [4] were “Not Active” and 1370 nM, respectively.

Take `CC(=O)Nc1cccc(O)c1` [METACETAMOL]: the IC50 result (against Neutrophil elastase; in experiment [1]; in experiment [2]; in experiment [3]; in experiment [4] (mdck); in experiment [5]) was “Not Active” each time. For the same compound, the IC50 result in experiment [6] and in experiment [7] was “Not Active” in each case. Also, the Ki entry in experiment [3] was “Not Active”.

On to `Cc1ncc([N+](=O)[O-])n1CCO` [METRONIDAZOLE], for which the IC50 result (at Neutrophil elastase; in experiment [1]; in experiment [2]; in experiment [3]; in experiment [4] (mdck); in experiment [5]) was “Not Active” throughout. In addition, the IC50 result in experiment [6] and in experiment [7] was “Not Active” throughout. The Ki result in experiment [3] is listed as “Not Active”.

As to `CC(C)(C(=O)c1cccnc1)c1cccnc1` [METYRAPONE], the IC50 entry (against Neutrophil elastase; in experiment [1]; in experiment [2]; in experiment [3]; in experiment [4] (mdck); in experiment [5]) was “Not Active” each time. In addition, the half-inhibitory concentration (IC50) result in experiment [6] and in experiment [7] was “Not Active” each time. For the same compound, the inhibition constant (Ki) entry in experiment [3] is on record as “Not Active”.

Regarding `Oc1ccc(OCc2ccccc2)cc1` [MONOBENZONE], the 50% inhibitory concentration (IC50) entry is “Not Active” at Neutrophil elastase; “Not Active” in experiment [1]; “Not Active” in experiment [2]; “Not Active” in experiment [3]; 3890 nM in experiment [4] (read-out: IC50); “Not Active” in experiment [5]. In addition, the half-inhibitory concentration (IC50) result in experiment [6] and in experiment [7] was “Not Active” each time. In addition, the inhibitory constant (Ki) entry in experiment [3] is “Not Active”; in experiment [4], 3850 nM.

For the origin of these results see ChEMBL document CHEMBL1909046, “DrugMatrix in vitro pharmacology data”.
